Measurements from ChEMBL document CHEMBL5247642, “Structural Optimization of Fibroblast Growth Factor Receptor Inhibitors for Treating Solid Tumors” (J Med Chem, 2023).
Activity calls are given as the source filed them. No cut-off for these calls is given here.

Legend:
[1] = system: NCI-H522; test: Antiproliferative activity against human NCI-H522 cells assessed as reduction in cell viability measured after 72 hrs; type: functional, cell-based; settings: NCI-H522, 72 h
[2] = target: T1, Fibroblast growth factor receptor 1 (Homo sapiens, UniProt P11362); settings: dose 1.0 nM, time 60.0 min
[3] = system: PANC-1; test: Antiproliferative activity against human PANC-1 cells assessed as reduction in cell viability measured after 72 hrs; type: functional, cell-based; settings: PANC-1, 72 h
[4] = system: SU.86.86; test: Antiproliferative activity against human SU-86-86 cells assessed as reduction in cell viability measured after 72 hrs; type: functional, cell-based; settings: SU.86.86, 72 h
[5] = system: HCC78; test: Antiproliferative activity against human HCC78 cells assessed as reduction in cell viability measured after 72 hrs; type: functional, cell-based; settings: HCC78, 72 h
[6] = system: CAPAN-1; test: Antiproliferative activity against human CAPAN-1 cells assessed as reduction in cell viability measured after 72 hrs; type: functional, cell-based; settings: CAPAN-1, 72 h
[7] = system: NCI-H441; test: Antiproliferative activity against human NCI-H441 cells assessed as reduction in cell viability measured after 72 hrs; type: functional, cell-based; settings: NCI-H441, 72 h
[8] = system: NCI-H526; test: Antiproliferative activity against human NCI-H526 cells assessed as reduction in cell viability measured after 72 hrs; type: functional, cell-based; settings: NCI-H526, 72 h
[9] = system: SNU-16; test: Antiproliferative activity against human SNU-16 cells assessed as reduction in cell viability measured for 72 hrs; type: functional, cell-based; settings: SNU-16, 72 h
[10] = Tmax in CD-1 mouse at 3 mg/kg, po measured after 24 hrs by LC-MS/MS analysis; type: ADME, organism-based; settings: in vivo
[11] = target: T2, Fibroblast growth factor receptor 4 (Homo sapiens, UniProt P22455); test: Inhibition of FGFR4 (unknown origin)
[12] = AUC (0 to infinity) in CD-1 mouse at 1 mg/kg, iv measured after 24 hrs by LC-MS/MS analysis; type: ADME, organism-based; design: dose 1 mg/kg, time 24 hrs, route iv; settings: in vivo
[13] = target: T3, Fibroblast growth factor receptor (Homo sapiens) (UniProt P22607+P11362+P22455+P21802); test: Inhibition of FGFR signalling in human SNU-16 assessed as inhibition of pErk phosphorylation at 0.1 nM incubated for 2 hrs by Western blot analysis; type: cell-based
[14] = Cmax in CD-1 mouse at 3 mg/kg, po measured after 24 hrs by LC-MS/MS analysis; type: ADME, organism-based; design: time 24 hrs, dose 3 mg/kg, route po; settings: in vivo
[15] = Toxicity in nude mouse xenografted with human SNU-16 cells assessed as body weight loss at 200 to 400 mg/kg, po administered once daily for 21 days; type: organism-based; settings: in vivo, 504 h, dose 200-400 mg/kg, time 21 day
[16] = AUC (0 to t) in CD-1 mouse at 3 mg/kg, po measured after 24 hrs by LC-MS/MS analysis; type: ADME, organism-based; design: time 24 hrs, dose 3 mg/kg, route po; settings: in vivo
[17] = system: PC-9; test: Antiproliferative activity against human PC-9 cells assessed as reduction in cell viability measured after 72 hrs; type: functional, cell-based; settings: PC-9, 72 h
[18] = target: Vascular endothelial growth factor receptor 2 (Homo sapiens) (UniProt P35968); test: Inhibition of VEGFR2 (unknown origin) at 1 uM using Poly (Glu,Tyr) 4:1 as substrate incubated for 60 mins in presence of ATP by ELISA analysis relative to control
[19] = target: Fibroblast growth factor receptor 3 (Homo sapiens, UniProt P22607, V555M); test: Inhibition of FGFR3 V555M mutant (unknown origin)
[20] = Half life in CD-1 mouse at 1 mg/kg, iv measured after 24 hrs by LC-MS/MS analysis; type: ADME, organism-based; settings: in vivo
[21] = MRT in CD-1 mouse at 3 mg/kg, po measured after 24 hrs by LC-MS/MS analysis; type: ADME, organism-based; settings: in vivo
[22] = system: NCI-H2286; test: Antiproliferative activity against human NCI-H2286 cells assessed as reduction in cell viability measured after 72 hrs; type: functional, cell-based; settings: NCI-H2286, 72 h
[23] = Stability in rat whole blood assessed as parent compound remaining measured after 2 hrs by LC-MS/MS analysis; type: ADME, tissue-based; settings: read-out: Stability
[24] = target: T3, Fibroblast growth factor receptor (Homo sapiens); test: Inhibition of FGFR phosphorylation in human SNU-16 cells at 5 nM measured after 24 hrs; type: cell-based
[25] = target: T3, Fibroblast growth factor receptor (Homo sapiens); test: Inhibition of FGFR phosphorylation in human SNU-16 cells at 5 nM measured after 12 hrs; type: cell-based
[26] = Oral bioavailability in CD-1 mouse at 3 mg/kg measured after 24 hrs by LC-MS/MS analysis; type: ADME, organism-based; settings: in vivo
[27] = target: T1, Fibroblast growth factor receptor 1; settings: dose 10.0 nM, time 60.0 min
[28] = system: EBC-1; test: Antiproliferative activity against human EBC-1 cells assessed as reduction in cell viability measured after 72 hrs; type: functional, cell-based; settings: EBC-1, 72 h
[29] = system: NCI-H1581; test: Antitumor activity against human NCI-H1581 cells xenografted in nude mouse assessed as tumor growth inhibition at 400 mg/kg, po administered once daily for 11 days by microcaliper analysis; type: functional, organism-based; settings: time 11.0 day
[30] = system: BaF3; test: Antiproliferative activity against mouse BaF3 cells assessed as reduction in cell viability measured after 72 hrs; type: functional, cell-based; settings: BaF3, 72 h
[31] = target: T2, Fibroblast growth factor receptor 4; test: Inhibition of FGFR4 (unknown origin) using Poly (Glu,Tyr) 4:1 as substrate incubated for 60 mins in presence of ATP by ELISA analysis
[32] = system: NCI-H3122; test: Antiproliferative activity against human NCI-H3122 cells assessed as reduction in cell viability measured after 72 hrs; type: functional, cell-based; settings: NCI-H3122, 72 h
[33] = MRT in CD-1 mouse at 1 mg/kg, iv measured after 24 hrs by LC-MS/MS analysis; type: ADME, organism-based; settings: in vivo
[34] = system: NCI-H520; test: Antiproliferative activity against human NCI-H520 cells assessed as reduction in cell viability measured after 72 hrs; type: functional, cell-based; settings: NCI-H520, 72 h
[35] = system: NCI-H716; test: Antitumor activity against human NCI-H716 cells xenografted in nude mouse assessed as tumor growth inhibition at 400 mg/kg, po administered once daily for 18 days by microcaliper analysis; type: functional, organism-based; settings: time 18.0 day
[36] = target: Fibroblast growth factor receptor 2 (Homo sapiens, UniProt P21802, V564F); test: Inhibition of FGFR2 V564F mutant (unknown origin)
[37] = system: NCI-H716; test: Antitumor activity against human NCI-H716 cells xenografted in nude mouse assessed as tumor growth inhibition at 200 mg/kg, po administered once daily for 18 days by microcaliper analysis relative to control; type: functional; design: scale not given: the % may be the effect or the level left; settings: time 18 day
[38] = target: Vascular endothelial growth factor receptor 1 (Homo sapiens) (UniProt P17948); test: Inhibition of VEGFR1 (unknown origin) at 1 uM using Poly (Glu,Tyr) 4:1 as substrate incubated for 60 mins in presence of ATP by ELISA analysis relative to control
[39] = system: OPM-2; test: Antiproliferative activity against human OPM-2 cells expressing FGFR3 assessed as reduction in cell viability measured after 72 hrs; type: functional, cell-based; settings: OPM-2, 72 h
[40] = target: Voltage-gated inwardly rectifying potassium channel KCNH2 (Homo sapiens, UniProt Q12809); test: Inhibition of hERG expressed in CHO cells at -80 mV holding potential by automated patch clamp method; type: toxicity, cell-based

T3 sequence (P11362 whole entry, looked up): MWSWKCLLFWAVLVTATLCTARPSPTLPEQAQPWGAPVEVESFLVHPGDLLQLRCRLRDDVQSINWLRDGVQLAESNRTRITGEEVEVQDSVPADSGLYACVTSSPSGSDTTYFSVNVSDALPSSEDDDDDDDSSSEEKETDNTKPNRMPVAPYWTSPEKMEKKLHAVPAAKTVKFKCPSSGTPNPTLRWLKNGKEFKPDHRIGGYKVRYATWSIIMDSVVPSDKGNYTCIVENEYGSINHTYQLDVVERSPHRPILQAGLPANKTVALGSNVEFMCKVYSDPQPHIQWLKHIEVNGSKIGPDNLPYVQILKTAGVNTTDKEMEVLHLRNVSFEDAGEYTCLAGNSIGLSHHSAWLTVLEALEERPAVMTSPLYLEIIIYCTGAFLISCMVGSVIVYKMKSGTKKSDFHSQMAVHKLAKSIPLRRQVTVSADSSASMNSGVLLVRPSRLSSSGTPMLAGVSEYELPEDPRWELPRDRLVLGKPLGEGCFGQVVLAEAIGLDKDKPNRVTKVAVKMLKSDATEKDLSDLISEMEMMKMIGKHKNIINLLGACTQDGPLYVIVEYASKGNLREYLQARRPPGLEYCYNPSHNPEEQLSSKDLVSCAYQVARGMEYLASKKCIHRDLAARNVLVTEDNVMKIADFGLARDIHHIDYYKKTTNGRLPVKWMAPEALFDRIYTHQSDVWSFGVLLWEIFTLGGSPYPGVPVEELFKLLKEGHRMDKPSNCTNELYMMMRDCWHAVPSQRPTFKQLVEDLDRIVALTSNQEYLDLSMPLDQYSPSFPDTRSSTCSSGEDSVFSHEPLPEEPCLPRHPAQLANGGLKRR
T3 sequence (P21802 whole entry, looked up): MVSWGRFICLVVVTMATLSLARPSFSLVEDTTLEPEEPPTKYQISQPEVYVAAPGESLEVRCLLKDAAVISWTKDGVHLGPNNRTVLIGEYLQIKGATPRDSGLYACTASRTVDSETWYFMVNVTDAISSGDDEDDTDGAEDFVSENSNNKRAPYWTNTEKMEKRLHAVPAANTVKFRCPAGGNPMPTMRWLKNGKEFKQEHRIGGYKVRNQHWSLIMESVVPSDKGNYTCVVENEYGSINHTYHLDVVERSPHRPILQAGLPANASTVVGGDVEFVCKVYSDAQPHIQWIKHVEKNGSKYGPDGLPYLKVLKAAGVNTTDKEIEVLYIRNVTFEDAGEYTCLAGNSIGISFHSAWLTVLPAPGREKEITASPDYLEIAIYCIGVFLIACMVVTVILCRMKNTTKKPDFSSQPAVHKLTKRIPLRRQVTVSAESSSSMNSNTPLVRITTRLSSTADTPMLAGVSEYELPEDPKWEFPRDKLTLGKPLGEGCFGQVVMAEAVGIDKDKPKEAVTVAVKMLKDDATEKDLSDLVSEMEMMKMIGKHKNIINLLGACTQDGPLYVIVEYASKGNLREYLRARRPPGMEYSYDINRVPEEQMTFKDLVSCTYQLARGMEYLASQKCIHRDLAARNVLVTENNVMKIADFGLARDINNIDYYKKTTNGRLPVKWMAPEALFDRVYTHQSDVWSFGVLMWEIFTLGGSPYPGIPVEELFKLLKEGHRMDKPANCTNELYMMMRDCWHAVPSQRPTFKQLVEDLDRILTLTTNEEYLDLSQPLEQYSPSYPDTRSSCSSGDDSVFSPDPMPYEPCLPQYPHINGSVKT
T3 sequence (P22455 whole entry, looked up): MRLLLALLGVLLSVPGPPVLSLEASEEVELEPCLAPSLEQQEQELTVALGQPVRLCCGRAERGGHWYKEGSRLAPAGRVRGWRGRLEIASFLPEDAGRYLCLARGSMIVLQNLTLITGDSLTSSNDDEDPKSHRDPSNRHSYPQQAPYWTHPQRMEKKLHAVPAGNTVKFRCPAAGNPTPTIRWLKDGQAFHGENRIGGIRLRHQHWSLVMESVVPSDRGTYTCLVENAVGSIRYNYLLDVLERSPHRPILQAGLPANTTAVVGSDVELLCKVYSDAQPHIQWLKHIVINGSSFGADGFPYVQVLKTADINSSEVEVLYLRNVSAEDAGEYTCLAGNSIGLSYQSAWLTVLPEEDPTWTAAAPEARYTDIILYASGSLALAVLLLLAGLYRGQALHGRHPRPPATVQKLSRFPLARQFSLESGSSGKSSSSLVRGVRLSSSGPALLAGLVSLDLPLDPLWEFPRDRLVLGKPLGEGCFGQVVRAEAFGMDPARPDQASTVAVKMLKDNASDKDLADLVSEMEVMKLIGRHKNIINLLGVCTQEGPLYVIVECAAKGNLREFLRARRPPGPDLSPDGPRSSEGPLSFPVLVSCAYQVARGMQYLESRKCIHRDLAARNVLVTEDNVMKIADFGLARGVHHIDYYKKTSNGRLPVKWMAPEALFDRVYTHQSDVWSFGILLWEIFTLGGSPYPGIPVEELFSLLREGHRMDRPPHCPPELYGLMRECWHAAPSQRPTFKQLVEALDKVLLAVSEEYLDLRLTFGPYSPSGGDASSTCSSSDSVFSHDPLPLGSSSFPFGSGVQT
T3 sequence (P22607 whole entry, looked up): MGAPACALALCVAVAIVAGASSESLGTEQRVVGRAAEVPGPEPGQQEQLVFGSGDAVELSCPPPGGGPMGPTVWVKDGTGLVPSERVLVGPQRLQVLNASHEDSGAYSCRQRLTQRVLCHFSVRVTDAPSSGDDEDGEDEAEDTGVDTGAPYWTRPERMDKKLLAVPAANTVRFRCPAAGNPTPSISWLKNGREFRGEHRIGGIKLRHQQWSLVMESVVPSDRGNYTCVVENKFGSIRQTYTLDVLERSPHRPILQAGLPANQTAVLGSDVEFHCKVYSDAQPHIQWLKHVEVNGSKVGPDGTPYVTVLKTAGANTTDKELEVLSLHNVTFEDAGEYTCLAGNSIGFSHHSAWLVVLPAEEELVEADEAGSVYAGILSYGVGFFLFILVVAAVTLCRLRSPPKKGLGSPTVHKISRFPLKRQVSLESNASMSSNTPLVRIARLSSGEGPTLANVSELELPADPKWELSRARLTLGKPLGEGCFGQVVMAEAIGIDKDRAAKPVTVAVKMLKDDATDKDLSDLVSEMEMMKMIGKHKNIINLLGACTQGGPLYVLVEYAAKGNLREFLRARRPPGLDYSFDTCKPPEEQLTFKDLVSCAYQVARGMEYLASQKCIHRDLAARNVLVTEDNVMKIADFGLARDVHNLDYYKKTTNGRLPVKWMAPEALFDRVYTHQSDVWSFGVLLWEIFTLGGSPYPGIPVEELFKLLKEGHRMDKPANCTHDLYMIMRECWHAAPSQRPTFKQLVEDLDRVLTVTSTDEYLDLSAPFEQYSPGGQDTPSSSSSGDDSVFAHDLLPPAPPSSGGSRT
T2 sequence (P22455 whole entry): as the sequence (P22455 whole entry, looked up) above
T1 sequence (P11362 22-822 limits assumed): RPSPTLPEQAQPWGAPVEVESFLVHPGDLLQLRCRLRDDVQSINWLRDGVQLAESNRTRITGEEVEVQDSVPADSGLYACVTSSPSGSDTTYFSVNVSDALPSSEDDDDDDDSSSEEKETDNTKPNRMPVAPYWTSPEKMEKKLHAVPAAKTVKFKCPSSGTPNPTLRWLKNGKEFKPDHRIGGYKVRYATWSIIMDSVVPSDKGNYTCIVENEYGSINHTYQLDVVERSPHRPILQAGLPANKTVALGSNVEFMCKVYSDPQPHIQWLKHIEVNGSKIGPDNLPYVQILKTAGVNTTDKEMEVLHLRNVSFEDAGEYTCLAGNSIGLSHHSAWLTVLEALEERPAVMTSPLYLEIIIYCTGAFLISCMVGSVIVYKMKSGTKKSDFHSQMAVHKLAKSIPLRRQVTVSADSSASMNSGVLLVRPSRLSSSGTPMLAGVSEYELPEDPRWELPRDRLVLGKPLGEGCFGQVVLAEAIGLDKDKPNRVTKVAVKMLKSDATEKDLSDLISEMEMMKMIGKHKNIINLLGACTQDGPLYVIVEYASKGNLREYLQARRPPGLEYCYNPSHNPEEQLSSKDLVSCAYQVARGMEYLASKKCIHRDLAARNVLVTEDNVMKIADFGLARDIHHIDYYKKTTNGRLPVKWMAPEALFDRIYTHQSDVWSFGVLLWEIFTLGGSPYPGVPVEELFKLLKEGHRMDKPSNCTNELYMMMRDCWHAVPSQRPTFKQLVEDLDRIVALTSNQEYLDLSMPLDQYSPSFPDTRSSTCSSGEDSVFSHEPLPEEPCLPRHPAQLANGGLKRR
Fibroblast growth factor receptor 2, sequence (P21802 22-821 V564F limits assumed): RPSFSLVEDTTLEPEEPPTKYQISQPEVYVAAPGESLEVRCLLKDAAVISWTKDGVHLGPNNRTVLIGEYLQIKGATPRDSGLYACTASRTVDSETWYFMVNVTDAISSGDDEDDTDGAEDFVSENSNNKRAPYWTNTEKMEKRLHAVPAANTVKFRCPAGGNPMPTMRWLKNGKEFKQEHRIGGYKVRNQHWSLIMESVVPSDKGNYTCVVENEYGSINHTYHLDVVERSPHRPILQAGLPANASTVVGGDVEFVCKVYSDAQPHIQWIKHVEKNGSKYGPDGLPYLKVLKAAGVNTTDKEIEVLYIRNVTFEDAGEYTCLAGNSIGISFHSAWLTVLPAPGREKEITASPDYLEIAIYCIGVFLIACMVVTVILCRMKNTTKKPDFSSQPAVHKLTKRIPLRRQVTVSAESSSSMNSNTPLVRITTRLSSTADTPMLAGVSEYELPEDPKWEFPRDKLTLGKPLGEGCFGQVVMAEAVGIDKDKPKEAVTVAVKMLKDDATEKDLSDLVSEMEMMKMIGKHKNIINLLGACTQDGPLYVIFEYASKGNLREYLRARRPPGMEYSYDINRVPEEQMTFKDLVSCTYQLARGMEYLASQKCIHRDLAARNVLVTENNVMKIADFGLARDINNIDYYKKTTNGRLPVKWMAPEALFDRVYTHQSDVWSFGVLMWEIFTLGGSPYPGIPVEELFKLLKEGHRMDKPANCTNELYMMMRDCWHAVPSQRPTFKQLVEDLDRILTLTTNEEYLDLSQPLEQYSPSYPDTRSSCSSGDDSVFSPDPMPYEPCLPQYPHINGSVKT

IC50 [1]: > 10 µM
inhibition [2]: 37.6%
IC50 [3]: > 10 µM
IC50 [5]: > 10 µM
IC50 [7]: > 10 µM
IC50 [8]: > 10 µM
IC50 [9]: 0.0012 µM
Tmax [10]: 15 min
IC50 [11]: 0.0061 µM
AUC [12]: 116 ng·h/mL
inhibition [13]: Active
Cmax [14]: 174 ng/mL
AUC(0-t) at 24 h [16]: 70.2 ng·h/mL
IC50 [17]: > 10 µM
inhibition [18]: < 50%
IC50 [19]: 2 µM
half-life [20]: 37.5 min
MRT [21]: 69.6 min
IC50 [22]: > 10 µM
remaining at 2 h [23]: > 40%
inhibition [24]: Active
inhibition [25]: Active
bioavailability [26]: 20.4%
inhibition [27]: 80.9%
IC50 [30]: > 10 µM
IC50 [31]: 0.155 µM
IC50 [32]: > 10 µM
MRT [33]: 15.1 min
IC50 [34]: > 10 µM
IC50 [36]: 2.86 µM
inhibition [38]: < 50%
SMILES: C=CC(=O)N1CCCC(n2nc3c(=O)[nH]nc(N)c3c2-c2oc3ccc(C)cc3c2C)C1 (stereo not given)
IC50 [4]: > 10 µM
IC50 [6]: > 10 µM
Activity [15]: Non-Toxic
IC50 [28]: > 10 µM
Activity [29]: Active
Activity [35]: Active
Activity [37]: 83.5%
IC50 [39]: 0.299 µM
IC50 [40]: 17.2 µM
